Test: photooxidation of UCA with hydrogen peroxide under UV irradiation (HPLC)
Format: physicochemical
Conditions: for YIELD OF PHOTOOXIDATION PRODUCTS: sum of 8 major peaks; for PHOTOISOMERIZATION cis-UCA / PHOTOISOMERIZATION trans-UCA: trans-UCA starting material
Procedure: Trans-UCA and cis-UCA were separated from each other and from several UCA oxidation products on a 4.6×250 mm Alltima C18 and Luna C18 reversed-phase column (Alitech, Deerfield, Ill. and Phenomenex, Torrence, Calif., resp.) with a flow of 0.8 mL/min, delivered by P-3500 HPLC-pumps (Pharmacia, Uppsala, Sweden). Samples of 20 to 200 μL were injected by a Promis II autosampler (Spark Holland, Emmen, The Netherlands) and chromatographic data were recorded on an SP 4270 integrator (Spectra Physics, San Jose, Calif.). Peak area data from samples were only processed under identical HPLC circumstances. A UV-detector (Applied Biosystems, model 759A, Foster City, Calif.) was set for 226 nm detection. Isocratic elution was performed with 10 mM ammonium formate buffer, containing 0.2–0.8 mM tetrabutylammonium(TBA)formate and 1% acetonitrile (pH 7.2). Collected fractions were acidified with formic acid up to a final concentration of 100 mM and passed through C18 could phase extraction columns (J T Baker, Deventer, The Netherlands) in order to remove TBA.
A 1-cm quartz cuvette, filled with 1.4 mL sample, was placed in the parallel beam of a filtered 1000 W Xenon are lamp (Oriel, Stratford, Conn.). The samples were magnetically stirred during irradiation. To minimize infrared (heat) and visible radiation, the beam was passed through a water filter (7 cm), reflected by a dichroic mirror and filtered through a 1=mm UG11 filter. Short wave cut off was achieved by passing the beam through WG280, WG305 or WG335 filters with 3 mm thickness each (Schott-Jena, Mainz, Germany). Xenon lamp emission filtered through WG280 included UV-C, UV-B and UV-A; through WG305 UV-B and UV-A and through WG335 only UV-A was included. Two narrow bands in the UV-B and UV-A spectral regions were selected to monitor the xenon-arc emission. The probe of a calibrated EG&G 550 radiometer (Salem, Mass., USA) was equipped with a neutral density filter and narrow band filter type UV-M-IL (Schott-Jena) with a transmission maximum of 21% at 303 nm and a half-width of 11.5 nm to monitor UV-B or with a type UV-PIL (Schott-Jena) with a transmission maximum of 46% at 363 nm and a half-width of 7.7 nm to monitor UV-A. Transmission spectra of the optical filters were checked on a Perkin Elmer Lambda 40 UV/VIS spectrometer (Norwalk, Conn., USA).
Additional irradiations were performed with fluorescent tubes TLI2, used as a UV-B source, and TL10R, used as a UV-A source (Philips, Eindhoven, The Netherlands), on samples that were magnetically stirred in small Petri dishes. The UV-B output was measured with an IL 443 phototherapy radiometer, fitted with a SEE 1240 silicon detector probe and the UV-A output with an IL 442A phototherapy radiometer with a SEE 115 detector probe (International Light, Newburyport, Mass., USA).
The O—O bond of hydrogen peroxide can be cleaved by UV radiation to yield hydroxyl radicals. Because both UCA isomers could effectively scavenge hydroxyl radicals, it is to be expected that UCA will be degraded and/or converted into oxidation products. The ability of simulated solar UV radiation to convert trans-UCA in the presence of hydrogen peroxide into photooxidation products was tested in vitro and analyzed by reversed-phase HPLC analysis. Hydrogen peroxide eluted close to void volume and trans-UCA and cis-UCA eluted with markedly different elution times of 20 and 64 min (FIGS. 3a–d). […] Exposing 80 μM trans-UCA in the absence of hydrogen peroxide at pH 7.2 to WG280-filtered xenon-arc emission (including UV-C and UV-B) resulted only and in the formation of cis-UCA via the process of photoisomerization (FIG. 3b). […] main photooxidation products were recognized as new peaks based on retention times and were assigned in the chromatogram (FIG. 3c).
In contrast, when exposures were performed with simulated solar radiation from which both UV-C and UV-B were blocked out by a WG335 filter, virtually no photo-oxidation products were found (FIG. 3d). […]

[1] = TL10R unfiltered, 320–440 nm, UV-B 0, UV-A 324
[2] = TL12 unfiltered, 280–366 nm, UV-B 3.6, UV-A 4.5
[3] = Xe arc W3305, 292–400 nm, UV-B 18, UV-A 70
[4] = Xe arc W3335, 320–400 nm, UV-B 0, UV-A 66
[5] = Xe arc W3280, 270–400 nm, UV-B 37, UV-A 70

## O=C(O)/C=C/c1cnc[nH]1 [trans-Urocanic acid, Trans-urocanic acid]
[1]
  YIELD OF PHOTOOXIDATION PRODUCTS: 16 (±5) A.U.
  PHOTOISOMERIZATION cis-UCA: 16%
  PHOTOISOMERIZATION trans-UCA: 84 (±7) %
[2]
  YIELD OF PHOTOOXIDATION PRODUCTS: 149 (±51) A.U.
  PHOTOISOMERIZATION cis-UCA: 59%
  PHOTOISOMERIZATION trans-UCA: 41 (±4) %
[3]
  YIELD OF PHOTOOXIDATION PRODUCTS: 239 (±14) A.U.
  PHOTOISOMERIZATION cis-UCA: 53%
  PHOTOISOMERIZATION trans-UCA: 47 (±3) %
[4]
  YIELD OF PHOTOOXIDATION PRODUCTS: 45 (±8) A.U.
  PHOTOISOMERIZATION cis-UCA: 40%
  PHOTOISOMERIZATION trans-UCA: 60 (±2) %
Extensive UCA breakdown (<4% of each UCA isomer left over)
  lowering of initial weight after severe photooxidation: ~14%
trans-UCA 40 μM, hydrogen peroxide 500 μM, TL10R unfiltered, 320–440 nm, UV-B 0, UV-A 324 kJ · M^−1
  UCA LEFT OVER: 99 (±3) %
trans-UCA 40 μM, hydrogen peroxide 500 μM, TL12 unfiltered, 280–366 nm, UV-B 3.6, UV-A 4.5 kJ · M^−1
  UCA LEFT OVER: 90 (±20) %
trans-UCA 40 μM, hydrogen peroxide 500 μM, Xe arc W3280, 270–400 nm, UV-C,-B,-A included, UV-B 37, UV-A 70 kJ · M^−1
  UCA LEFT OVER: 43 (±11) %
trans-UCA 40 μM, hydrogen peroxide 500 μM, Xe arc W3280, 270–400 nm, UV-B 37, UV-A 70
  YIELD OF PHOTOOXIDATION PRODUCTS: 347 (±58) A.U.
trans-UCA 40 μM, hydrogen peroxide 500 μM, Xe arc W3305, 292–400 nm, UV-B,-A included, UV-B 18, UV-A 70 kJ · M^−1
  UCA LEFT OVER: 64 (±6) %
trans-UCA 40 μM, hydrogen peroxide 500 μM, Xe arc W3335, 320–400 nm, only UV-A included, UV-B 0, UV-A 66 kJ · M^−1
  UCA LEFT OVER: 95 (±5) %
[5]
  PHOTOISOMERIZATION cis-UCA: 59%
  PHOTOISOMERIZATION trans-UCA: 43 (±2) %

Reference: patent publication US7056938B1, “Method for scavenging radicals with urocanic acid, derivatives and analogues” (Academisch Ziekenhuis Bij De Univ., priority 1999, dated 2006)
